“Also recorded” adds a separate entry of the source.
Experiments:
[1] = system: Homozygous Holstein^Tg/Tg mice; test: Survival of Hol^Tg/Tg mice after enema treatment (model of Trisomy 21 [Collagen VI]-associated HSCR); format: in vivo, mouse
Protocol: Mice. Homozygous Holstein^Tg/Tg mice (Hol^Tg/Tg; a model for Trisomy 21 [Collagen VI]-associated HSCR) were treated with either 10 μl enemas of GDNF (1 μg/μl), or 10 μl of GDNF combined with 5 mM of amino-butyrate acid (Butyrate) or other growth factors at 1 μg/μl, or vehicle (1×PBS) as control. Enemas were administered once a day from postnatal day (P) 4 until P8, and mice were monitored daily until P60 or megacolon-associated death. Survival graphs and statistical analyses were generated with GraphPad Prism software. One-way ANOVA followed by post-hoc Tukey multiple comparison test was carried out, and significance level was set at P<0.05. Number of biological replicates (n) of each cohort is indicated where relevant in Figures.
It was tested whether molecules known to have neurotrophic effects could improve the effect of GDNF on survival in a mouse model for Trisomy 21 [Collagen VI]-associated HSCR) (39).
The molecules that were tested in the present study are: Bone morphogenetic protein 4 (BMP4), Nerve growth factor (NGF), Brain-derived neurotrophic factor (BDNF), Mesencephalic Astrocyte Derived Neurotrophic Factor (MANF), Cerebral Dopamine Neurotrophic Factor (CDNF), Epidermal Growth Factor (EGF), Neurturin (NRTN), Fibroblast growth factor 2 (FGF2), butyrate and Retinoic Acid (RA).

[2] = system: mouse model for Trisomy 21 [Collagen VI]-associated HSCR; settings: previous study, same mouse model; Soret et al., Gastroenterology 2020, Supplementary FIG. 1G; cited from earlier work
[3] = literature reports, various models; cited from earlier work

Compound | survival of mice, combination with GDNF relative to GDNF alone [2] | Reported neurotrophic activity [3] | further results
CCCC(=O)O [butyrate] | – | – | effect on survival of combination with GDNF relative to GDNF alone ([1]; 10 μl enema of GDNF 1 μg/μl combined with 5 mM butyrate or other growth factor at 1 μg/μl, once a day P4 until P8, monitored until P60): significantly potentiate the effect of recombinant GDNF; also recorded: acts synergistically with GDNF to improve survival; effect on mouse survival, substance alone ([1]; 10 μl enema once a day P4 until P8, butyrate 5 mM, compared with vehicle (1×PBS), monitored until P60): did not have any effect on survival; also recorded: no effect on mouse survival
NCCc1c[nH]c2ccc(O)cc12 [serotonin] | did not improve the survival of mice relative to GDNF alone | – | –
O=C1O[C@H]([C@@H](O)CO)C(O)=C1O [vitamin C] | did not improve the survival of mice relative to GDNF alone | – | –
CDNF: Cerebral Dopamine Neurotrophic Factor | – | CDNF is essential for enteric neuronal development | –
EGF: Epidermal Growth Factor | – | EGF is chemoattractant and chemokinetic molecule for | –
FGF2: Fibroblast growth factor 2 | – | FGF2 enhances the proliferation and differentiation of | –
endothelin 3: molecule known to have neurotrophic effects, combined with GDNF in a previous study | did not improve the survival of mice relative to GDNF alone | – | –
